The record followed here is PMC9911168, “Cytotoxic and pro-apoptotic effects of botanical drugs derived from the indigenous cultivated medicinal plant Paris polyphylla var. yunnanensis” (Frontiers in Pharmacology, 2023).

Holding throughout (assay type): cell-based, human
One test has as its system SMMC-7721. The test is described as follows: MTS cell viability assay, SMMC-7721. Particulars: liver cancer cell line SMMC-7721, MTS, 48 h; for IC50: read-out: IC50 (±SD) SMMC-7721. As to the method: (§1) The effects of the extracts and isolated saponins on cell growth were evaluated by the MTS assay (3-(4,5-dimethylthiazol-2-yl)-5(3-carboxymethoxyphenyl)-2-(4-sulfopheny)-2H-tetrazolium; Promega, Madison, WI, United States) on human tumor cell lines ([Mosmann, 1983]; [Cory et al., 1991]; [Malich et al., 1997]). In a test experiment of cell inhibition, the cell inhibition effects of six crude extracts (100 μg/mL) and six isolated saponins (40 μM) were roughly measured to ascertain whether to measure the IC50 value by MTS assay.
(§2) Each well of a 96-well plate (Multiskan Fc, Therm) was seeded with 100 μL cells at a density of 3,000–5,000 cells per well, with the cell suspension containing 10% (v/v) fetal bovine serum (DMEM or RMPI1640, Biological Industries, Kibbutz Beit-Haemek, Israel). After 12–24 h of inoculation and culture at 37°C, the extracts or saponins were added at the indicated concentrations after being dissolved in dimethyl sulfoxide (DMSO, Biological Industries, Kibbutz Beit-Haemek, Israel) in a final volume of 200 μL per well, each in triplicate. The six crude extracts were added at concentrations of 100, 20, 4, 0.8, and 0.16 μg/mL; the six isolated saponins were added at concentrations of 10, 5, 2.5, 1.25, 0.625, and 0.3125 μM. After culture for 48 h at 37°C, 20 μL of MTS solution and 100 μL of DMEM were added to each well; three blank wells were set aside with 20 μL MTS solution and 100 μL DMEM. After an incubation for another 2–4 h, the absorbance at 492 nm was measured. Cisplatin and Paclitaxel (MeilunBio) were used as a positive control in each experiment. The cell growth curve was drawn with the concentration as the abscissa and the cell survival rate as the ordinate. The IC50 value of each saponin was calculated by the two-point method ([Reed and Muench, 1938]).

The test system of another test is HepG2. The test is described as follows: MTS cell viability assay, HepG2. Particulars: liver cancer cell line HepG2, MTS, 48 h; for IC50: read-out: IC50 (±SD) HepG2. On the procedure: as §1, §2
Background: Tetrazolium assays rely on reduction of a dye to a coloured formazan, in cell work by metabolically active cells.

In another test the test system is SK-HEP-1. The test is described as follows: MTS cell viability assay, SK-HEP-1. The settings on record: liver cancer cell line SK-HEP-1, MTS, 48 h; for IC50: read-out: IC50 (±SD) SK-HEP-1. On the procedure:
as §1, §2

A further test concerns A549. The test is described as follows: MTS cell viability assay, A549. Particulars: NSCLC cell line A549, MTS, 48 h; for IC50: read-out: IC50 (±SD) A549. On the procedure: as §1, §2
The test system of another test is LO2. The test is described as follows: MTS cell viability assay, normal liver cell LO2. Particulars: normal liver cell LO2, MTS, read-out: IC50 (±SD) LO2. As to the method:
(§3) Three human liver cancer cell lines (SMMC-7721, HepG2, and SK-HEP-1) and the non-small-cell lung cancer (NSCLC) cell line A549 were obtained from ATCC (Manassas, VA, United States). Normal human cell lines (liver cell line LO2 and lung cell line BEAS-2B) were obtained from ATCC (Manassas, VA, United States). Cells were cultured in RMPI-1640 or DMEM medium (Biological Industries, Kibbutz Beit-Haemek, Israel) supplemented with 10% (v/v) fetal bovine serum (Biological Industries) at 37°C in a humidified atmosphere with 5% (v/v) CO2.
as §1, §2

For another test, the system named is BEAS-2B. The test is described as follows: MTS cell viability assay, normal lung cell BEAS-2B. Particulars: normal lung cell BEAS-2B, MTS, read-out: IC50 (±SD) BEAS-2B. On the procedure: as §3, §1, §2
For test [1], the system named is A549 cells. The test is described as follows: Cell cycle analysis (PI staining, flow cytometry), A549. Particulars: A549, 24 h; saponins 1 and 5 at 0.5 μM, other four at 1 μM. On the procedure: (§4) Cell cycle distribution was determined by propidium iodide (PI, BD, Pharmingen) staining ([Kong et al., 2016]; [Wei et al., 2021]). Briefly, three cancer cell lines were cultured in six-well plates at a density of 3 × 10^5 cells per well for 24 h before treatment with each of the six isolated saponins at the indicated concentrations for 24 h. The cells were collected, centrifuged, and washed twice with ice-cold PBS. Cells were fixed in 70% (v/v) ice-cold ethanol at 4°C overnight and washed again in PBS twice. The cells were incubated with 100 μL RNase A at 37°C for 30 min in the dark, after which 400 μL PI was added to the cells with RNase A in the dark at 4°C for 15 min. The cell cycle stage was analyzed by flow cytometry (BD, FACSCelesta, United States) with FLOWJO software (FlowJo, Ashland, OR, United States).
On the technique in general: Flow cytometry measures light scatter and fluorescence of single cells or particles in a stream.

The test system of test [2] is HepG2 cells. The test is described as follows: Cell cycle analysis (PI staining, flow cytometry), HepG2. The settings on record: HepG2, 24 h, 1 μM. On the procedure: as §4
Test [3] concerns A549 cells. The test is described as follows: Apoptosis by annexin V-FITC/PI staining, A549. The settings on record: A549, saponins 5 μM, Figure 7. On the procedure:
(§5) Double staining with annexin V-fluorescein isothiocyanate (FITC) and PI was used to determine the effects of the six saponins on cell apoptosis by flow cytometry ([Homburg et al., 1995]; [Vermes et al., 1995]; [Casciola-Rosen et al., 1996]). The effects of the six isolated saponins on apoptosis were determined using an annexin V-FITC apoptosis kit (BD, Pharmingen); the chemotherapy drug doxorubicin (DOX, Beyotime Institute of Biotechnology, Shanghai, China) was used as the positive control. Cells were cultured in six-well plates at a density of 3 × 10^5 cells per well for 24 h before being treated with each of the six isolated saponins at the indicated concentrations for 24 h. The cells were collected, centrifuged, and washed twice with ice-cold phosphate-buffered saline (PBS). The cells were stained with annexin V-FITC and PI for 15 min in the dark at room temperature before analysis by flow cytometry (BD, FACSCelesta, America). Annexin V-FITC^+ and PI^+ (Q2) were considered late-stage apoptotic cells, while annexin V-FITC^+ and PI^− (Q3) cells were considered early-stage apoptotic cells. Annexin V-FITC^– and PI^+ (Q1) were necrotic or mechanically damaged cells, and annexin V-FITC^– and PI^− (Q4) cells were healthy living cells.

Test [4] deals with HepG2 cells. The test is described as follows: Apoptosis by annexin V-FITC/PI staining, HepG2. Particulars: HepG2, saponins 5 μM, Figure 7. As to the method: as §5
The subject of another test is SMMC-7721 cells. The test is described as follows: Apoptosis by annexin V-FITC/PI staining, SMMC-7721. The settings on record: SMMC-7721, saponins 5 μM, Figure 7. On the procedure:
as §5

Where “and” joins values, the source holds several entries; their conditions need not be identical. Equal entries are not always repeated. Entries after “also recorded” stand apart in the source; their conditions may differ. Where two headings read alike, the source gives them in different places. A value given as a limit tells only on which side of the number the result lay.

As to `N.N.[Cl][Pt][Cl]` [Cisplatin, reference compound], in the test on SMMC-7721, the “IC50 (±SD) SMMC-7721” value came out at 5.05 ± 0.12 µg/mL. Moreover, the concentration for half-maximal inhibition (IC50) (commonly the midpoint of a concentration-inhibition curve) in the test with SMMC-7721 is 17800 ± 570 nM; with HepG2, 5670 ± 100 nM; with SK-HEP-1, 21000 ± 710 nM; in the test on A549, 26100 ± 520 nM; with LO2, 13800 ± 480 nM; in the test with BEAS-2B it was greater than 40 µM. In addition, in the test with HepG2, the “IC50 (±SD) HepG2” value worked out at 1.90 ± 0.13 µg/mL. In addition, in the test on SK-HEP-1, the “IC50 (±SD) SK-HEP-1” value is 8.79 ± 0.49 µg/mL. The “IC50 (±SD) A549” value in the test on A549 turned out to be 16.74 ± 0.68 µg/mL.

Regarding `CC(=O)O[C@H]1C(=O)[C@@]2(C)[C@H]([C@H](OC(=O)c3ccccc3)[C@]3(O)C[C@H](OC(=O)[C@H](O)[C@@H](NC(=O)c4ccccc4)c4ccccc4)C(C)=C1C3(C)C)[C@]1(OC(C)=O)CO[C@@H]1C[C@@H]2O` [Paclitaxel, reference compound], the IC50 was 0.12 µg/mL and 180 nM in the test on SMMC-7721 (Homo sapiens); < 0.01 µg/mL and < 10 nM in the test with HepG2 (Homo sapiens); < 0.01 µg/mL and < 10 nM in the test with SK-HEP-1 (Homo sapiens, SK-HEP1); < 0.01 µg/mL and < 10 nM in the test with A549 (Homo sapiens); less than 10 nM with LO2 (Homo sapiens, L02); greater than 5 µM with BEAS-2B (Homo sapiens).

For `CC1CCC2(OC1)OC1CC3C4CC=C5CC(OC6OC(CO)C(OC7OC(CO)C(O)C7O)C(O)C6OC6OC(C)C(O)C(O)C6O)CCC5(C)C4CCC3(C)C1(O)C2C` [saponin 2, pennogenin-3-O-α-L-arabinofuranosyl-(1→4)-[α-L-rhamnopyranosyl-(1→2)]-β-D-glycopyranoside], the IC50 in the test on SMMC-7721 (Homo sapiens) amounted to 1880 ± 70 nM; in the test with HepG2 (Homo sapiens), 2140 ± 10 nM; with SK-HEP-1 (Homo sapiens, SK-HEP1) it was 1580 ± 80 nM; with A549 (Homo sapiens), 1250 ± 20 nM; in the test with LO2 (Homo sapiens, L02), 2330 ± 100 nM; with BEAS-2B (Homo sapiens) it was 4.95 ± 0.04 µM. The “cell cycle phase with increased proportion of cells compared to DMSO control” value with A549 cells [1] was “S and G2/M phases”; in the test on HepG2 cells [2], “S and G2/M phases”. Besides, the “apoptosis rate (induction of apoptosis, in words)” value is “strong apoptosis” in the test on A549 cells [3] and “next” in the test with HepG2 cells [4].

On to `CC1CCC2(OC1)OC1CC3C4CC=C5CC(OC6OC(CO)C(OC7OC(C)C(O)C(O)C7O)C(O)C6OC6OC(C)C(O)C(O)C6O)CCC5(C)C4CCC3(C)C1C2C` [saponin 3, diosgenin-3-O-α-L-rhamnopyranosyl-(1→2)-[α-L-rhamnopyranosyl-(1→4)]-β-D-glucopyranoside], for which the IC50 in the test with SMMC-7721 (Homo sapiens) turned out to be 2560 ± 80 nM; in the test with HepG2 (Homo sapiens) it was 3800 ± 50 nM; with SK-HEP-1 (Homo sapiens, SK-HEP1) it was 1800 ± 70 nM; in the test on A549 (Homo sapiens), 1690 ± 40 nM; in the test on LO2 (Homo sapiens, L02) it was 3780 ± 180 nM; with BEAS-2B (Homo sapiens), 3.07 ± 0.19 µM. Moreover, the “cell cycle phase with increased proportion of cells compared to DMSO control” value in the test with A549 cells [1] is given as “G0/G1 phase”. Also, the “increase of proportion of cells in S phase compared to DMSO control” value in the test with HepG2 cells [2] was 27.5%.

`CC1CCC2(OC1)OC1CC3C4CC=C5CC(OC6OC(CO)C(OC7OC(CO)C(O)C7O)C(O)C6OC6OC(C)C(O)C(O)C6O)CCC5(C)C4CCC3(C)C1C2C` [saponin 4, diosgenin-3-O-α-L-arabinofuranosyl-(1→4)-[α-L-rhamnopyranosyl-(1→2)]-β-D-glucopyranoside]: the IC50 in the test on SMMC-7721 (Homo sapiens) turned out to be 720 ± 20 nM; in the test on HepG2 (Homo sapiens) it was 1590 ± 30 nM; in the test on SK-HEP-1 (Homo sapiens, SK-HEP1) it was 660 ± 40 nM; in the test with A549 (Homo sapiens), 580 ± 10 nM; in the test on LO2 (Homo sapiens, L02), 850 ± 10 nM; in the test on BEAS-2B (Homo sapiens) it was 1.82 ± 0.09 µM. Besides, the “cell cycle phase with increased proportion of cells compared to DMSO control” value in the test with A549 cells [1] was “increase in the proportion of cells at the G2/M phase”. In addition, the “increase of proportion of cells in the G2/M phase compared to DMSO control” value with HepG2 cells [2] is on record as 17.2%.

For `CC1CCC2(OC1)OC1CC3C4CC=C5CC(OC6OC(CO)C(OC7OC(C)C(OC8OC(C)C(O)C(O)C8O)C(O)C7O)C(O)C6OC6OC(C)C(O)C(O)C6O)CCC5(C)C4CCC3(C)C1(O)C2C` [saponin 5, pennogenin 3-O-α-L-rhamnopyranosyl-(1→2)-[α-L-rhamnopyranosyl-(1→4)-α-L-rhamnopyranosyl-(1→4)]-β-D-glucopyranoside], the 50% inhibitory concentration (IC50) in the test with SMMC-7721 (Homo sapiens) turned out to be 1200 ± 100 nM; in the test with HepG2 (Homo sapiens), 1570 ± 10 nM; in the test with SK-HEP-1 (Homo sapiens, SK-HEP1), 940 ± 60 nM; with A549 (Homo sapiens) it was 900 ± 10 nM; with LO2 (Homo sapiens, L02), 900 ± 20 nM; in the test on BEAS-2B (Homo sapiens), 0.94 ± 0.03 µM. Further, the “cell cycle phase with increased proportion of cells compared to DMSO control” value is “S phase” with A549 cells [1]; “S and G2/M phases” in the test on HepG2 cells [2]. The “apoptosis rate (induction of apoptosis, in words)” value in the test on A549 cells [3] is “stronger apoptosis than the positive control DOX”; with A549 cells [3] (listed as Saponin 5), “strong apoptosis”; in the test with SMMC-7721 cells it was “substantial induction of apoptosis; also recorded: stronger apoptosis than the positive control DOX”; with HepG2 cells [4], “highest apoptosis rate; also recorded: stronger apoptosis than the positive control DOX”.
